Tests used:
Type in all cases: in vivo, human
[1] = tested on: adult patients with type 2 diabetes mellitus with albuminuria; experiment: Phase 2 study: serum LDL cholesterol; details: for Serum LDL Cholesterol: Between PRL and PBO Group LS Mean Change from Baseline at week 12 / Serum LDL Cholesterol: Within Group LS Mean Change from Baseline at Week 12: ITT; for LDL Cholesterol: Placebo Adjusted LS Mean Change from Baseline at Week 12 / LDL Cholesterol: Within Group LS Mean Change from Baseline at Week 12: mITT Population
Source text: (§1) Other secondary objectives of this clinical study included the evaluation of the pharmacokinetic (PK) concentrations of oral IW-1973 and the exploration of the effect of oral IW-1973 on hemodynamics and metabolic effects when administered daily for approximately 12 weeks to adult patients with type 2 diabetes mellitus with albuminuria (i.e., DN patients) who were on a stable regimen of renin-angiotensin system inhibitors (RAAS inhibitors, i.e., ACEi's and ARBs).
(§2) Clinical laboratory assessments obtained during the performance of this clinical trial included: complete blood count, serum chemistry panel, urinalysis, coagulation panel, estimated glomerular filtration rate (eGFR; determined by the Chronic Kidney Disease Epidemiology Collaboration [CKD-EPI] creatinine equation), hemoglobin A1c (HbA1C), Homeostatic Model Assessment to estimate insulin resistance (HOMA-IR), platelet function assessment (using VerifyNow®, at a subset of sites), urine pregnancy, and screens for hepatitis, human immunodeficiency virus, and drugs of abuse.
(§3) This multicenter, randomized, double-blind, placebo-controlled, parallel-group study evaluated 2 dose levels of IW-1973 compared with placebo. The study population consisted of adult patients with type 2 diabetes mellitus, albuminuria, and impaired renal function. Patients had to have been taking antihyperglycemic medications for at least 12 weeks with their regimen being stable (ie, drug and dose) for at least 28 days before the Randomization Visit. Additionally, patients had to have been on a stable regimen of angiotensin-converting enzyme inhibitor (ACEi) or an angiotensin receptor blocker (ARB), for at least 28 days before the Randomization Visit. For more details, see Inclusion Criteria below. A total of 156 patients (approximately 50 patients per arm) were stratified by baseline estimated glomerular filtration rate (eGFR) into three groups: eGFR 30 to 45, >45 to 60, and >60 to 75 mL/min/1.73 m^2) and randomized approximately 1:1:1 to total daily 20 mg IW-1973, 40 mg IW-1973, or placebo.

[2] = tested on: adult patients with type 2 diabetes mellitus with albuminuria; experiment: Phase 2 study: change from baseline in urine albumin to creatinine ratio (UACR); details: for Between PRL and PBO Group Geometric Mean % Change UACR from Baseline: placebo adjusted; for UACR: Mean CFB at Weeks 8 & 12, Placebo Adjusted / UACR: Mean CFB at Weeks 8 & 12, Within Group: text b231-232 says Week 12
Source text: A Multicenter, Randomized, Double-blind, Placebo-controlled, Phase2 Study to Evaluate the Safety and Efficacy of IW-1973 in Patients with Type 2 Diabetes with Albuminuria Treated with Renin-Angiotensin System Inhibitors
The primary objectives of this clinical study (Clinical Trials.gov Identifier NCT03217591) were to assess the safety and tolerability and to evaluate the effect of oral IW-1973 on renal function when administered daily for approximately 12 weeks to adult patients with type 2 diabetes mellitus with albuminuria who were on a stable regimen of renin-angiotensin system inhibitors ([…] or ARBs).
The primary efficacy endpoint of this trial was the change from baseline in Urine Albumin to Creatinine Ratio (UACR) at Weeks 8 and 12. UACR was determined as the concentration of urine albumin [mg/dL] divided by the concentration of urine creatinine [g/dL]) from urinalysis. First morning void urine samples were collected. To reduce variability, the measurement of UACR was the average of 2-first morning void tests at each timepoint.
as §3
Treatment Period: The Treatment Period began on Day 1 at Randomization (there was no Day 0) and ended after the End of Treatment Visit on Day 87 (±3). Patients were stratified in one of three groups by baseline eGFR (ie, eGFR 30 to 45, >45 to 60, and >60 to 75 mL/min/1.73 m2) and randomized in an approximate1:1:1 ratio to receive 20 mg IW-1973, 40 mg IW-1973, or placebo for approximately 12 weeks.
Dosing on Days 1 to 7 (±1) was BID (twice daily), morning and evening; dosing on Day 8 (±1) and onward was QD (once daily), 2 tablets in the morning. At the Randomization Visit on Day 1, patients received their morning dose of study drug in the clinic and underwent safety, efficacy, and pharmacokinetic (PK) assessments, including blood and urine collections at prespecified times. Patients stayed in the clinic at least 6 hours postdose and were able to leave the clinic at the Investigator's discretion following all study procedures. At the Week 1 Visit on Day 8 (±1), patients returned to the clinic and received their first QD dose of study drug in the clinic. Patients underwent safety, efficacy, and PK assessments, including blood and urine collections at prespecified times. Patients stayed in the clinic at least 6 hours postdose and were able to leave the clinic at the Investigator's discretion following all study procedures. At the Week 4 (Day 29±3), Week 8 (Day 57±3), and End of Treatment (Day 87±3) Visits, patients returned to the clinic for study drug administration; safety, efficacy, and PK assessments; and study drug supply, if applicable.
One week at 10 mg BID followed by 20 mg QD for the remainder of the trial, i.e., a 20 mg total daily dosage; or
One week at 20 mg BID, followed by 40 mg QD for the remainder of the trial, i.e., a 40 mg total daily dosage.

[3] = tested on: adult patients with type 2 diabetes mellitus with albuminuria; experiment: Phase 2 study: fasting plasma glucose; details: ITT
Source text: as §1, §2, §3

[4] = ITT, Week 12, PRL 20 mg total daily
[5] = ITT, Week 12, PRL 40 mg total daily
[6] = ITT, Weeks 8 & 12, PRL 20 mg total daily

`OC(CNc1nc(-c2cc(-c3ccon3)n(Cc3ccccc3F)n2)ncc1F)(C(F)(F)F)C(F)(F)F` [Compound I, praliciguat] was tested, and the “Serum LDL Cholesterol: Between PRL and PBO Group LS Mean Change from Baseline at week 12” value ([1]; PRL 20 mg) was -8.9 mg/dL, the “Serum LDL Cholesterol: Within Group LS Mean Change from Baseline at Week 12” value ([1]; PRL 20 mg) was -6.0 mg/dL and the “Serum LDL Cholesterol: Between PRL and PBO Group LS Mean Change from Baseline at week 12” value ([1]; PRL 40 mg) was -6.2 mg/dL. For the same molecule, the “Serum LDL Cholesterol: Within Group LS Mean Change from Baseline at Week 12” value ([1]; PRL 40 mg) was -3.3 mg/dL, the “Serum LDL Cholesterol: Between PRL and PBO Group LS Mean Change from Baseline at week 12” value ([1]; PRL Combined) was -7.5 mg/dL and the “Serum LDL Cholesterol: Within Group LS Mean Change from Baseline at Week 12” value ([1]; PRL Combined) was -4.6 mg/dL. For the same molecule, the “LDL Cholesterol: Placebo Adjusted LS Mean Change from Baseline at Week 12” value ([1]; PRL 20 mg) was -13.4 mg/dL, the “LDL Cholesterol: Within Group LS Mean Change from Baseline at Week 12” value ([1]; PRL 20 mg) was -8.8 mg/dL and the “LDL Cholesterol: Placebo Adjusted LS Mean Change from Baseline at Week 12” value ([1]; PRL 40 mg) was -9.5 mg/dL. The “LDL Cholesterol: Within Group LS Mean Change from Baseline at Week 12” value ([1]; PRL 40 mg) was -4.9 mg/dL, the “LDL Cholesterol: Placebo Adjusted LS Mean Change from Baseline at Week 12” value ([1]; PRL Combined) was -11.4 mg/dL and the “LDL Cholesterol: Within Group LS Mean Change from Baseline at Week 12” value ([1]; PRL Combined) was -6.9 mg/dL. The “Within Group Geometric Mean % Change UACR from Baseline” value [2, 4] was −35.2%, the “Between PRL and PBO Group Geometric Mean % Change UACR from Baseline” value [2, 4] was −23.9% and the “Within Group Geometric Mean % Change UACR from Baseline” value [2, 5] was −26.4%. For the same molecule, the “Between PRL and PBO Group Geometric Mean % Change UACR from Baseline” value [2, 5] was −13.6%, the “Within Group Geometric Mean % Change UACR from Baseline” value ([2]; ITT, Week 12, PRL Combined) was −30.9% and the “Between PRL and PBO Group Geometric Mean % Change UACR from Baseline” value ([2]; ITT, Week 12, PRL Combined) was −18.9%. For the same molecule, the “Within Group Geometric Mean % Change UACR from Baseline” value [2, 6] was −28.4%, the “Between PRL and PBO Group Geometric Mean % Change UACR from Baseline” value [2, 6] was −16.0% and the “Within Group Geometric Mean % Change UACR from Baseline” value ([2]; ITT, Weeks 8 & 12, PRL 40 mg total daily) was −27.3%. The “Within Group Geometric Mean % Change UACR from Baseline” value ([2]; ITT, Weeks 8 & 12, PRL Combined (20 and 40 mg)) was −27.8%, the “placebo-adjusted reduction (mean percent decrease) from baseline in UACR” value ([2]; ITT, combined praliciguat groups, Weeks 8 and 12) was 15% and the “reduction from baseline in UACR” value ([2]; ITT, combined praliciguat groups, over 12 weeks (weeks 8 and 12)) was 28%. For the same molecule, the “UACR Mean % CFB at Weeks 8 & 12, Placebo Adjusted” value (“UACR Mean % CFB … Placebo Adjusted” below) ([2]; mITT Population, PRL 20 mg) was −14.8%, the “UACR Mean % CFB at Weeks 8 & 12, Within Group” value (“UACR Mean % CFB … Within Group” below) ([2]; mITT Population, PRL 20 mg) was −18.4% and the “UACR: Mean CFB at Weeks 8 & 12, Placebo Adjusted” value (“UACR: Mean CFB … Placebo Adjusted” below) ([2]; mITT Population, PRL 20 mg) was −21.5%. The “UACR: Mean CFB at Weeks 8 & 12, Within Group” value (shortened to “UACR: Mean CFB … Within Group”) ([2]; mITT Population, PRL 20 mg) was −24.7%, the “UACR Mean % CFB … Placebo Adjusted” value ([2]; mITT Population, PRL 40 mg) was −25.1% and the “UACR Mean % CFB … Within Group” value ([2]; mITT Population, PRL 40 mg) was −28.3%. The “UACR: Mean CFB … Placebo Adjusted” value ([2]; mITT Population, PRL 40 mg) was −24.2%, the “UACR: Mean CFB … Within Group” value ([2]; mITT Population, PRL 40 mg) was −27.4% and the “UACR Mean % CFB … Placebo Adjusted” value ([2]; mITT Population, PRL Combined) was −20.1%. The “UACR Mean % CFB … Within Group” value ([2]; mITT Population, PRL Combined) was −23.5%, the “UACR: Mean CFB … Placebo Adjusted” value ([2]; mITT Population, PRL Combined) was −22.9% and the “UACR: Mean CFB … Within Group” value ([2]; mITT Population, PRL Combined) was −26.1%. For the same molecule, the “placebo-adjusted mean percent decrease in UACR” value ([2]; mITT Population, combined praliciguat treatment groups, Week 12) was 23%, the “placebo-adjusted mean percent decrease from baseline in UACR” value ([2]; mITT Population, combined praliciguat treatment groups, Weeks 8 and 12) was 20% and the “placebo-corrected mean reduction from baseline in UACR” value ([2]; mITT, participants with eGFR 30-45 mL/min/1.73 m^2 at baseline, 12-week treatment) was 30-40%. For the same molecule, the “Fasting Plasma Glucose: Between PRL and PBO Group LS Mean Change from Baseline at week 12” value ([3]; PRL 20 mg) was 2.3 mg/dL, the “Fasting Plasma Glucose: Within Group LS Mean Change from Baseline at Week 12” value ([3]; PRL 20 mg) was 6.09 mg/dL and the “Fasting Plasma Glucose: Between PRL and PBO Group LS Mean Change from Baseline at week 12” value ([3]; PRL 40 mg) was -18.2 mg/dL. The “Fasting Plasma Glucose: Within Group LS Mean Change from Baseline at Week 12” value ([3]; PRL 40 mg) was -14.4 mg/dL, the “Fasting Plasma Glucose: Between PRL and PBO Group LS Mean Change from Baseline at week 12” value ([3]; PRL Combined) was -7.9 mg/dL and the “Fasting Plasma Glucose: Within Group LS Mean Change from Baseline at Week 12” value ([3]; PRL Combined) was -4.1 mg/dL.

Reference: patent US20240165114A1, “TREATMENT OF DIABETIC NEPHROPATHY WITH AN sGC STIMULATOR” (Cyclerion Therapeutics, Inc., priority 2019, published 2024)
